Data: US20110178171A1, “COMPOUNDS FOR CANCER THERAPY” (China Medical University, priority 2010, published 2011)

Tested on: LNCaP xenografts
Experiment: Antitumor activity in vivo, LNCaP xenograft
Set-up: species or system mice
Procedure: Xenograft mice as a model system to study cytotoxicity effect of isochaihulactone in vivo: the implantation of cancer cells (LNCaP) were carried out similarly to previous reports. Female congenital athymic BALB/c nude (nu/nu) mice were purchased from National Sciences Council (Taipei, Taiwan) and all procedures were performed in compliance with the standard operating procedures of the Laboratory Animal Center of China Medical University (Taichung, Taiwan). All experiments were carried out using 6-8-week old mice weighing 18-22 g. The animals were s.c. implanted with 1×10^7 cell sinto the back of mice. When the tumor reached 80-120 mm3 in volume, animals were divided randomly into control and test groups consisting of six mice per group (day 0). Daily s.c. administration of z-K8, dissolved in a vehicle of 20% Tween 80 in normal saline (v/v) was performed from days 0 to 4 far from the inoculated tumor sites (>1.5 cm). The control group was treated with vehicle only. The mice were weighed three times a week up to days 21-28 to monitor the effects and the same time the tumor volume was determined by measurement of the length (L) and width (W) of the tumor. The tumor volume at day n (TVn) was calculated as TV (mm3)=(L×W^2)/2. The relative tumor volume at day n (RTVn) versus day 0 was expressed according to the following formula: RTVn=TVn/TV0. Tumor regression (T/C(%)) in treated versus control mice was calculated using: T/C(%)=(mean RTV of treated group)/(mean RTV of control group)×100. Xenograft tumors as well as other vital organs of treated and control. The results are shown in Tables 6 and 7 and FIGS. 6 and 7.
(§1) Assays were carried out to examine the inhibition of human xenografts growth in vivo by isochaihulactone. Briefly, LNCaP tumor-bearing mice were administered s.c. with vehicle control, 30 mg/kg E-K8, and Z-K8 respectively on days 0-4 for 5 days. The volumes of the tumors were measured. […] Scale bars, […]. Data represent means W S.D. of tumor volume at each time
as §1, with “Z-K8. Again,” for “isochaihulactone. Briefly,”, “Z-K8 15” for “30”, “mg/kg” for “mg/kg E-K8, and Z-K8 respectively”, “time point.” for “time”

[1] = 30 mg/kg s.c. days 0-4, day 1 after administration
[2] = 30 mg/kg s.c. days 0-4, day 4 after administration
[3] = 30 mg/kg s.c. days 0-4, day 7 after administration
[4] = 30 mg/kg s.c. days 0-4, day 10 after administration
[5] = 30 mg/kg s.c. days 0-4, day 13 after administration
[6] = 30 mg/kg s.c. days 0-4, day 16 after administration
[7] = 30 mg/kg s.c. days 0-4, day 19 after administration

COc1cc(/C=C2\C(=O)OCC2Cc2ccc3c(c2)OCO3)cc(OC)c1OC (racemic) [Z-K8, Racemic (Z)-β-(3′,4′-Methylenedioxybenzyl)-α-(3′,4′,5′-trimethoxybenzylidene)-γ-butyrolactone]
Relative tumor volume (15 mg/kg s.c. days 0-4, day 1 after administration): 1
Relative tumor volume (15 mg/kg s.c. days 0-4, day 4 after administration): 1.59
Relative tumor volume (15 mg/kg s.c. days 0-4, day 7 after administration): 1.91
Relative tumor volume (15 mg/kg s.c. days 0-4, day 10 after administration): 1.94
Relative tumor volume (15 mg/kg s.c. days 0-4, day 13 after administration): 2.13
Relative tumor volume (15 mg/kg s.c. days 0-4, day 16 after administration): 1.79
Relative tumor volume (15 mg/kg s.c. days 0-4, day 19 after administration): 2.00
Relative tumor volume (15 mg/kg s.c. days 0-4, day 21 after administration): 2.23
Relative tumor volume [1]: 1
Tumor growth volume (mm^3) [1]: 0 mm^3
Relative tumor volume [2]: 1.11
Tumor growth volume (mm^3) [2]: 0 mm^3
Relative tumor volume [3]: 1.12
Tumor growth volume (mm^3) [3]: 90 mm^3
Relative tumor volume [4]: 1.20
Tumor growth volume (mm^3) [4]: 202.5 mm^3
Relative tumor volume [5]: 1.23
Tumor growth volume (mm^3) [5]: 260 mm^3
Relative tumor volume [6]: 1.47
Tumor growth volume (mm^3) [6]: 255 mm^3
Relative tumor volume [7]: 1.23
Tumor growth volume (mm^3) [7]: 200 mm^3
Relative tumor volume (30 mg/kg s.c. days 0-4, day 21 after administration): 1.85
Tumor growth volume (mm^3) (30 mg/kg s.c. days 0-4, day 22 after administration): 225 mm^3
Tumor growth volume (mm^3) (30 mg/kg s.c. days 0-4, day 25 after administration): 375 mm^3
Tumor growth volume (mm^3) (30 mg/kg s.c. days 0-4, day 28 after administration): 435 mm^3
Tumor growth volume (mm^3) (30 mg/kg s.c. days 0-4, day 31 after administration): 633.5 mm^3
tumor growth inhibition, in words (LNCaP tumor-bearing mice, 30 mg/kg s.c. days 0-4 (FIG. 6)): better tumor growth inhibition than E-form K8
